Literature values in patent US8980299B2, “Method of making a vascular closure device” (Cordis Corporation, priority 2007, dated 2015).

Tested on: S. aureus
Settings: suitable growth medium; Bhargava et al., Am J Infect Control, June 1996

## Oc1cc(Cl)ccc1Oc1ccc(Cl)cc1Cl [2,4,4′-trichloro-2′hydroxydiphenyl ether, 2,4,4′-trichloro-2′-hydroxydiphenyl ether]
  minimum inhibitory concentration (MIC) against S. aureus: 0.01 ppm
